# Patent US20260158157A1, “COMBINATION OF ANTI-HER3 ANTIBODY-DRUG CONJUGATE AND RASG12C INHIBITOR” (DAIICHI SANKYO COMPANY, LIMITED, priority 2023, published 2026)
# Experiments:
# topoisomerase I = molecular target: T1, topoisomerase I (Homo sapiens, UniProt P11387); conditions: reference: Ogitani Y. et al., Clinical Cancer Research 2016; cited from earlier work
# T1 sequence (P11387 1-765): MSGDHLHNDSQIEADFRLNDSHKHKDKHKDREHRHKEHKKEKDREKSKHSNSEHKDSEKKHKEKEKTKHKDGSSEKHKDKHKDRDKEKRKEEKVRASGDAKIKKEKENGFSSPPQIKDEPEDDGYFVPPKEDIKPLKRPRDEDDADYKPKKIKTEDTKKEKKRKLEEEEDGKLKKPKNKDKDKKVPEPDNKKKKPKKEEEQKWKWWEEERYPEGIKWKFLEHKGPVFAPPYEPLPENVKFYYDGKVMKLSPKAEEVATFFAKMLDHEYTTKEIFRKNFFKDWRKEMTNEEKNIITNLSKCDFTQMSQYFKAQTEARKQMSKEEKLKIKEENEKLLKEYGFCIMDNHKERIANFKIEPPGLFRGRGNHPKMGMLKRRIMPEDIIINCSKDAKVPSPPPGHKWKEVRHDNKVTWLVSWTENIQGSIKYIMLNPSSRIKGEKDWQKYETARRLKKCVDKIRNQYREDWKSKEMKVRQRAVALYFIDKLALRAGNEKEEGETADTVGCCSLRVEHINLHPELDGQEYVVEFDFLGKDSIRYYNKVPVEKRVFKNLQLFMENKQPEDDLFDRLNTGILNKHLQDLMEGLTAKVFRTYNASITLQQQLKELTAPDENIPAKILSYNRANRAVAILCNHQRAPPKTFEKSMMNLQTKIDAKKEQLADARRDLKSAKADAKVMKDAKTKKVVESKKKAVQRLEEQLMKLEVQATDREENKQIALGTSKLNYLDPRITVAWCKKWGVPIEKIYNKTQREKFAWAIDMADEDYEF
# NCI-H358 cells = assay: Antitumor test (1): NCI-H358 cells subcutaneously transplanted into nude mice; conditions: for notable findings such as weight reduction: NCI-H358 xenograft nude mice, HER3-ADC (1) 3 mg/kg iv and/or RASG12C inhibitor 10 mg/kg orally, 3 weeks
# Experimental: Mouse: Female BALB/c nude mice of 5 to 6 week-old (Charles River Laboratories Japan, Inc.) were used in an experiment.
# Measurement and calculation formula: In all studies, the long diameter and the short diameter of a tumor were measured with an electronic digital caliper (CD-15CX, Mitutoyo Corporation) twice a week to calculate the tumor volume (mm^3). The calculation formula was as follows: […]
# HER3-ADC (1) was diluted with ABS buffer (10 mM acetate buffer (pH 5.5), 5% sorbitol), and the resultant liquid was administered in an amount of 10 mL/kg to the tail vein.
# Sotorasib was dissolved in 2% hydroxypropyl methylcellulose and 1% Tween 80, and the resultant liquid was orally administered in an amount of 10 mL/kg. […] NCI-H358 cells, that is, human lung cancer line purchased from ATCC (American Type Culture Collection) were suspended in 50% Matrigel matrix (Invitrogen), and 3×10^6 cells thus obtained were subcutaneously transplanted into a right side portion of the body of each of the female nude mice, and the resultant mice were randomly grouped 13 days after the transplantation (Day 0). HER3-ADC (1) was administered to the tail vein at a dose of 3 mg/kg on Day 0, Day 7, and Day 14. The RASG12C inhibitors were administered at a dose of 10 mg/kg for 3 weeks once a day and five times a week. Groups each given one of these agents, a group given both, and a solvent administration group as a control group were established.
Molecule,topoisomerase I inhibitory effect (topoisomerase I),notable findings such as weight reduction (NCI-H358 cells),"tumor growth inhibition (TGI), single administration of RASG12C inhibitor (NCI-H358 cells; NCI-H358 xenograft, female nude mice, 10 mg/kg orally once a day, five times a week for 3 weeks, final day of the test) [%]","tumor growth inhibition (TGI), single administration of HER3-ADC (1) (NCI-H358 cells; NCI-H358 xenograft, female nude mice, 3 mg/kg tail vein on Day 0, Day 7 and Day 14, final day of the test) [%]"
CC[C@@]1(O)C(=O)OCc2c1cc1n(c2=O)Cc2c-1nc1cc(F)c(C)c3c1c2[C@@H](NC(=O)CO)CC3,confirmed to have topoisomerase I inhibitory effect,–,–,–
C=CC(=O)N1CCN(c2nc(=O)n(-c3c(C)ccnc3C(C)C)c3nc(-c4c(O)cccc4F)c(F)cc23)[C@@H](C)C1 [sotorasib],–,anal prolapse,39,–
"HER3-ADC (1): anti-HER3 antibody (heavy chain SEQ ID NO: 1, light chain SEQ ID NO: 2) conjugated to exatecan-derivative drug-linker via thioether bond; average drug-to-antibody ratio 7.6",–,No notable findings such as weight reduction,–,68
